The text below walks through data of publication PMC10296415, “Methyl-Thiol-Bridged Oxadiazole and Triazole Heterocycles as Inhibitors of NF-κB in Chronic Myelogenous Leukemia Cells” (Biomedicines, 2023).

Broadly, the IC50 is the concentration at which inhibition is half-maximal. High values mean a need for much substance, low ones inhibition by little substance. For orientation: melting point means the temperature of the solid-liquid transition.

SMILES strings stand for the structures. Bounds are passed on as bounds.

One data set has as its system MCF-7 cell line. Kind of data set: MTT cell viability assay, MCF-7. It counts as cell-based. As to the method: MCF-7 cells were purchased from Procell Life Science and Technology Co., Ltd., Wuhan, China, and cultured in MEM or Leibovitz’s L-15 medium containing 2% FBS. MCF-7 cells were maintained in a 5% CO2-humidified atmosphere at 37 °C. KCL22, LAMA84, and K562 cells were obtained from the American Type Culture Collection (Manassas, VA, USA). The KBM5 cell line was previously provided by Dr. Bharat Aggarwal (University of Texas M.D. Anderson Cancer Center, Houston, TX, USA). KBM5 cells were cultured in IMDM medium with 10% inactivated FBS and 1% penicillin-streptomycin. KCL22, LAMA84, and K562 cells were cultured in RPMI with 10% FBS and 1% penicillin-streptomycin antibiotics and maintained at 37 °C in a 5% CO2 chamber.
(§1) Cells (1 × 10^4 cells/well) were seeded on a 96-well plate and treated with 4c (0, 5, 10, 15, 30, 50 µM) for 24 h. After 24 h of treatment, 30 µL of MTT solution (2 mg/mL) for 2 h, followed by MTT lysis overnight. Cell viability was analyzed by measuring the absorbance of lysed MTT crystals using VARIOSKAN LUX (Thermo Fisher Scientific Inc., Waltham, MA, USA) at 570 nm.
(Tetrazolium dyes change colour on reduction, which living cells bring about.)

The subject of another data set is MCF-10A cells. Kind of data set: Cytotoxicity assay, MCF-10A. The data set is classed as cell-based. To be noted: normal mammary epithelial cells. As to the method:
as §1

A short description of data set [1]: DFT frontier molecular orbital calculations. As to the method: Computational DFT studies for the molecules were performed using Gaussian09 [35]. The molecule was built and visualized by the Gaussview 5 program package. The molecular geometry of the molecules was optimized at the B3LYP level with a 6-311++G (d,p) basis set.
FMO analysis of compound 4c was performed using the B3LYP method with a 6-311 (2d, p) basis set. The HOMO of a molecule represents the site where the electron density is highest and is involved in electron donation, whereas the LUMO represents the site where the electron density is lowest and is involved in electron acceptance. The ELUMO-EHOMO energy gap is directly related to the molecule’s chemical reactivity and kinetic stability. The molecule has a smaller energy gap, which is attributed to less stability and more reactivity. In contrast, the molecule has a large energy gap, attributed to being less chemically reactive and having high chemical stability with greater hardness. […] It is observed that the HOMO-LUMO energy gap of 4l decreased by 1.24 eV and 1.04 eV in alpha and beta orbitals, respectively, when compared with the 4c molecule. […] In contrast, LUMO orbitals were localized on dichlorophenyl, triazole groups, and sulphur atoms of the lead molecule 4c. The chemical potential values for 4c and 4i were estimated to be −4.23 eV and −3.91 eV, respectively, and reflects their significant electron-accepting capacity. […]

[2] abbreviates: Homo sapiens, MCF7, viability of MCF-7 cell line.

`COc1ccc(Cc2nnc(SCc3cn(-c4ccc(Cl)cc4)nn3)o2)cc1` [Compound 4a, 2-(((1-(4-Chlorophenyl)-1H-1,2,3-triazol-4-yl)methyl)thio)-5-(4-methoxybenzyl)-1,3,4-oxadiazole] showed a melting point of 92 to 94 °C. In the data set on MCF-7 cell line (setting [2]), this compound came in with an IC50 of 9.58 ± 0.98 µM. The same compound had a half-maximal inhibitory concentration (IC50) in the data set on MCF-10A cells (Homo sapiens, MCF-10A) above 100 µM.

In the case of `COc1ccc(-n2cc(CSc3nnc(Cc4ccc(OC)c(OC)c4)o3)nn2)cc1` [Compound 4o, 2-(3,4-Dimethoxybenzyl)-5-(((1-(4-methoxyphenyl)-1H-1,2,3-triazol-4-yl)methyl)thio)-1,3,4-oxadiazole], the melting point was 76 to 78 °C. This compound also gave an IC50 with MCF-7 cell line (setting [2]) of 35.8 ± 1.55 µM.

With `COc1ccc(Cc2nnc(SCc3cn(-c4ccccc4C)nn3)o2)cc1OC` [Compound 4r, 2-(3,4-Dimethoxybenzyl)-5-(((1-(o-tolyl)-1H-1,2,3-triazol-4-yl)methyl)thio)-1,3,4-oxadia-zole], in the data set with MCF-7 cell line (viability of MCF-7 cell line), the midpoint of inhibition, the IC50, lay at 35.7 ± 1.55 µM.

Take `COc1ccc(Cc2nnc(SCc3cn(-c4ccccc4)nn3)o2)cc1OC` [Compound 4m, 2-(3,4-Dimethoxybenzyl)-5-(((1-phenyl-1H-1,2,3-triazol-4-yl)methyl)thio)-1,3,4-oxadiazole]: the melting point is 46 to 48 °C. This compound also came in with an IC50 in the data set on MCF-7 cell line (setting [2]) of 28.3 ± 1.45 µM.

`COc1ccc(Cc2nnc(SCc3cn(-c4cccc(Cl)c4)nn3)o2)cc1OC` [Compound 4n, 2-(((1-(3-Chlorophenyl)-1H-1,2,3-triazol-4-yl)methyl)thio)-5-(3,4-dimethoxybenzyl)-1,3,4-oxadiazole] showed a melting point of 70 to 72 °C. Moreover, the IC50 in the data set with MCF-7 cell line (setting [2]) is 23.2 ± 1.37 µM.

On to `COc1cccc2c1C(=O)c1c(O)c3c(c(O)c1C2=O)C[C@@](O)(C(=O)CO)C[C@@H]3O[C@H]1C[C@H](N)[C@H](O)[C@H](C)O1` [Doxorubicin, reference compound], for which the IC50 with MCF-7 cell line (setting [2]) is 0.91 ± 0.04 µM.

In the case of `COc1ccc(Cc2nnc(SCc3cn(-c4ccc(OC)cc4)nn3)o2)cc1` [Compound 4f, 2-(4-Methoxybenzyl)-5-(((1-(4-methoxyphenyl)-1H-1,2,3-triazol-4-yl)methyl)thio)-1,3,4-oxadiazole], the melting point is 90 to 92 °C. Also, half-maximal inhibition with MCF-7 cell line (setting [2]) (IC50) was put at 34.5 ± 1.54 µM.

For the compound `COc1ccc(Cc2nnc(SCc3cn(-c4ccc(O)cc4)nn3)o2)cc1` [Compound 4g, 4-(4-(((5-(4-Methoxybenzyl)-1,3,4-oxadiazol-2-yl)thio)methyl)-1H-1,2,3-triazol-1-yl)phenol], the melting point fell in the range of 94 to 96 °C. The midpoint of inhibition in the data set on MCF-7 cell line (setting [2]), the IC50, lay at 29.7 ± 1.47 µM.

Take `COc1ccc(Cc2nnc(SCc3cn(-c4ccc(C)cc4)nn3)o2)cc1OC` [Compound 4q, 2-(3,4-Dimethoxybenzyl)-5-(((1-(p-tolyl)-1H-1,2,3-triazol-4-yl)methyl)thio)-1,3,4-oxadia-zole]: the IC50 in the data set with MCF-7 cell line (viability of MCF-7 cell line) was 19.7 ± 1.3 µM; with MCF-10A cells it was above 100 µM.

Compound `COc1ccc(Cc2nnc(SCc3cn(-c4ccccc4O)nn3)o2)cc1OC` [Compound 4p, 2-(4-(((5-(3,4-Dimethoxybenzyl)-1,3,4-oxadiazol-2-yl)thio)methyl)-1H-1,2,3-triazol-1-yl)phenol] displayed a melting point of 122 to 124 °C. This compound also returned an IC50 in the data set with MCF-7 cell line (setting [2]) of 65 ± 1.81 µM.

For the compound `COc1ccc(Cc2nnc(SCc3cn(-c4ccc(Br)cc4)nn3)o2)cc1OC` [Compound 4k, 2-(((1-(4-Bromophenyl)-1H-1,2,3-triazol-4-yl)methyl)thio)-5-(3,4-dimethoxybenzyl)-1,3,4-oxadiazole], the melting point was 98 to 100 °C. Moreover, the IC50 in the data set on MCF-7 cell line (setting [2]) came out at 31.9 ± 1.5 µM.

The compound `COc1ccc(Cc2nnc(SCc3cn(-c4cccc(Cl)c4)nn3)o2)cc1` [Compound 4e, 2-(((1-(3-Chlorophenyl)-1H-1,2,3-triazol-4-yl)methyl)thio)-5-(4-methoxybenzyl)-1,3,4-oxadiazole] yielded a melting point of 94 to 96 °C. For the same compound, the IC50 with MCF-7 cell line (setting [2]) was 9 to 16 µM. Also, the IC50 in the data set with MCF-7 cell line (viability of MCF-7 cell line) turned out to be 16.9 ± 1.23 µM. This compound also came in with an IC50 with MCF-10A cells (Homo sapiens, MCF-10A) above 100 µM.

Take `COc1ccc(Cc2nnc(SCc3cn(-c4ccc(Cl)c(Cl)c4)nn3)o2)cc1OC` [Compound 4l, 2-(((1-(3,4-Dichlorophenyl)-1H-1,2,3-triazol-4-yl)methyl)thio)-5-(3,4-dimethoxybenzyl)-1,3,4-oxadiazole]: the melting point was 102 to 104 °C. This compound also returned an IC50 in the data set on MCF-7 cell line (setting [2]) of 23.8 ± 1.38 µM. Besides, in data set [1] (alpha orbitals), the “decrease of HOMO-LUMO energy gap compared with the 4c molecule” value was 1.24 eV. The “decrease of HOMO-LUMO energy gap compared with the 4c molecule” value in data set [1] (beta orbitals) is 1.04 eV.

For the compound `COc1ccc(Cc2nnc(SCc3cn(-c4ccc(Br)cc4)nn3)o2)cc1` [Compound 4b, 2-(((1-(4-Bromophenyl)-1H-1,2,3-triazol-4-yl)methyl)thio)-5-(4-methoxybenzyl)-1,3,4-oxadia-zole], the IC50 was 8.44 ± 0.93 µM with MCF-7 cell line (viability of MCF-7 cell line) and above 100 µM with MCF-10A cells.

On to `COc1ccc(Cc2nnc(SCc3cn(-c4ccccc4)nn3)o2)cc1` [Compound 4d, 2-(4-Methoxybenzyl)-5-(((1-phenyl-1H-1,2,3-triazol-4-yl)methyl)thio)-1,3,4-oxadiazole], for which the melting point fell in the range of 60 to 62 °C. For the same compound, in the data set on MCF-7 cell line (setting [2]), the IC50 was determined as 25.8 ± 1.41 µM.

`COc1ccc(Cc2nnc(SCc3cn(-c4ccc(C)cc4)nn3)o2)cc1` [Compound 4i, 2-(4-Methoxybenzyl)-5-(((1-(p-tolyl)-1H-1,2,3-triazol-4-yl)methyl)thio)-1,3,4-oxadiazole] had a melting point of 104 to 106 °C. In the data set on MCF-7 cell line (setting [2]), this compound yielded an IC50 of 45.4 ± 1.66 µM.

The compound `COc1ccc(Cc2nnc(SCc3cn(-c4ccc(Cl)cc4)nn3)o2)cc1OC` [Compound 4j, 2-(((1-(4-Chlorophenyl)-1H-1,2,3-triazol-4-yl)methyl)thio)-5-(3,4-dimethoxybenzyl)-1,3,4-oxadiazole] returned a melting point of 72 to 74 °C. Further, inhibition in the data set on MCF-7 cell line (setting [2]) was half-maximal at 40.5 ± 1.61 µM (IC50).

For the compound `COc1ccc(Cc2nnc(SCc3cn(-c4ccccc4C)nn3)o2)cc1` [Compound 4h, 2-(4-Methoxybenzyl)-5-(((1-(o-tolyl)-1H-1,2,3-triazol-4-yl)methyl)thio)-1,3,4-oxadiazole], half-maximal inhibition with MCF-7 cell line (setting [2]) (IC50) was put at 26.2 ± 1.42 µM.
